Data set [1] in a line: Maximum solubility in topical dosing solution. It is filed as physicochemical. The settings on record: buffered saline ~pH 7, isotonic; 25.0 mg per mL solution. The method, then: Compound D3 was prepared using a formulation designed by Mimetogen Pharmaceuticals, which is buffered saline ˜pH 7 (as determined by pH indicator strips, EMD Chemicals). Three topical dosing solutions were prepared as follows: • A topical dosing solution of 0.4% was prepared using 4.0 mg of compound dissolved in 845 μL, of sterile milliQ water. The solution was adjusted to ˜pH 7 with 6.5 μL of 1.0 N NaOH (VWR) using pH indicator strips and made isotonic (0.9% NaCl) by adding 148.5 μL of sterile 1.0 M NaCl. • A topical dosing solution of 1.0% was prepared using 10.0 mg of compound dissolved in 845 μL of sterile milliQ water. […] The solution was adjusted to ˜pH 7 with 20 μL of 1.0 N NaOH. The solution was made isotonic by adding 135 μL of sterile 1.0 M NaCl. All solutions were sonicated for 5 min. All compound D3 solutions were stored refrigerated (2-8° C.) for the duration of the study.

In data set [2] the test system is scopolamine induced dry eye model. The data set is described as follows: Scopolamine induced dry eye model, tear fluorescein clearance (Example 3). It is filed as in vivo, rat. As to conditions: single topical instillation of 1% on day eight; measured day thirteen. The method, then: Dry eye was induced using scopolamine (Sigma-Aldrich, St. Louis, Mo.), which was continuously and systemically delivered to the animals via an osmotic pump (2ML4 Alzet®; CedarLane, Burlington, Ontario) filled with scopolamine and implanted subcutaneously in the mid dorsal area between the scapulae. The wound was closed with 2-3 wound clips. After the surgery and again the next day, the animals were subcutaneously injected with Carprofen (0.5 mg/100 g) a non-steroidal anti-inflammatory drug and potent, long-acting analgesic in rodents. Animals were anaesthetized before the surgical pump implantation and before all clinical endpoint testing in an Isofluorane 99.9% USP (Abraxis Bioscience, Richmond Hill, Ontario) chamber. […]
Tear fluorescein clearance was evaluated as described for humans (Afonso, A A. et al., “Correlation of Tear Fluorescein Clearance and Schirmer Test Scores with Ocular Irritation Symptoms,” Ophthalmology 106:803-810 (1999), the entire content of which is incorporated herein by reference) and modified for rats (Chen, W. et al., “Keratoconjunctivitis Sicca Modifies Epithelial Stem Cell Proliferation Kinetics in Conjunctiva,” Cornea 26:1101-1106 (2007), the entire content of which is incorporated herein by reference). […] The length of cotton wetting in mm determined the volume of the collected tear fluid. […]

Data set [3] deals with Conjunctival goblet cells. The data set is described as follows: Conjunctival goblet cell proliferation, WST-8 assay (Example 1). The data set is classed as cell-based, rat. The settings on record: NGF 1 nM (FIG. 4), 24 hours. As to the method: Cells derived from the explants were grown in RPMI 1640 supplemented with 10% fetal bovine serum (FBS) and penicillin (100 U/mL)/streptomycin (100 μg/mL) at 37° C. in a humidified 5% CO2-atmosphere for seventy-two hours. Contaminating nongoblet cells were removed by scraping them from the plate. During this time, goblet cells migrated from the pieces and began to proliferate. After one week, the goblet cells were trypsinized and plated in twenty-four well culture plates with RPMI-1640 media supplemented with 10% FBS.
Conjunctival goblet cells were grown to subconfluence in 24-well culture plates and then serum deprived for twenty-four hours. […] CGC proliferation was determined with a colorimetric nonradioactive, WST-8 proliferation assay that measures the number of cells. This procedure employs the 2-(2-methoxy-4-nitrophenyl)-3-(4-nitrophenyl)-5-(2,4-disulfophenyl)-2H-tetrazolium, monosodium salt (WST-8), which is cleaved by viable, growing mitochondria to form a dark blue formazan product that is detected by a fluorescence ELISA reader (Bio-Tek, Winooski, Vt.) at 460 nm.
Data for CGC glycoconjugate secretion and proliferation were expressed as the increase (x-fold) above basal value, which was standardized to 1.0. For example, for the 0.3 μM (micromolar), 1 μM and 10 μM doses, the CGC glycoconjugate secretion and proliferation were expressed as test compound over untreated cells. […]

As for `NCCCC[C@@H]1NC(=O)[C@H](CCC(=O)O)NC(=O)c2cc([N+](=O)[O-])ccc2OCCC(C(=O)NCC(=O)O)NC1=O` (stereo partly drawn) [Compound D3], the maximum solubility in data set [1] stood at 2.5%. For the same compound, in data set [2], the “aqueous tear turnover, fluorescein clearance (in words)” value is “no effect on aqueous tear turnover”.
In turn, “NGF: nerve growth factor (recombinant human), positive control” gave a CGC proliferation in data set [3] of 1.6±0.3 fold above basal.

For the origin of these results see patent US9707267B2, “Beta-turn peptidomimetic cyclic compounds for treating dry eye” (Mimetogen Pharmaceuticals, Inc., priority 2008, dated 2017).
